Experimental data as given in patent publication US10889543B2, “Fine-tune modulators of neuronal excitability for neuropsychiatric disorders” (THE BOARD OF REGENTS OF THE UNIVERSITY OF TEXAS SYSTEM, priority 2016, dated 2021).
Residues, ends and D or L forms follow the SMILES beside them. *: point of attachment. Cbz = O=C(OCc1ccccc1)*; Boc = CC(C)(C)OC(=O)*

Key:
Assay type in all cases: cell-based
Nav1.6 channels = molecular target: T1, Nav1.6 channels (Homo sapiens, UniProt Q9UQD0); test: Whole-cell patch clamp of Na+ currents in HEK-Nav1.6 cells expressing GFP (Nav1.6 channels alone)
T1 construct: expressed in transfected cells; host or cells: HEK-Nav1.6 (HEK293 stably expressing Nav1.6, G418 selection)
T1 sequence (Q9UQD0 whole entry): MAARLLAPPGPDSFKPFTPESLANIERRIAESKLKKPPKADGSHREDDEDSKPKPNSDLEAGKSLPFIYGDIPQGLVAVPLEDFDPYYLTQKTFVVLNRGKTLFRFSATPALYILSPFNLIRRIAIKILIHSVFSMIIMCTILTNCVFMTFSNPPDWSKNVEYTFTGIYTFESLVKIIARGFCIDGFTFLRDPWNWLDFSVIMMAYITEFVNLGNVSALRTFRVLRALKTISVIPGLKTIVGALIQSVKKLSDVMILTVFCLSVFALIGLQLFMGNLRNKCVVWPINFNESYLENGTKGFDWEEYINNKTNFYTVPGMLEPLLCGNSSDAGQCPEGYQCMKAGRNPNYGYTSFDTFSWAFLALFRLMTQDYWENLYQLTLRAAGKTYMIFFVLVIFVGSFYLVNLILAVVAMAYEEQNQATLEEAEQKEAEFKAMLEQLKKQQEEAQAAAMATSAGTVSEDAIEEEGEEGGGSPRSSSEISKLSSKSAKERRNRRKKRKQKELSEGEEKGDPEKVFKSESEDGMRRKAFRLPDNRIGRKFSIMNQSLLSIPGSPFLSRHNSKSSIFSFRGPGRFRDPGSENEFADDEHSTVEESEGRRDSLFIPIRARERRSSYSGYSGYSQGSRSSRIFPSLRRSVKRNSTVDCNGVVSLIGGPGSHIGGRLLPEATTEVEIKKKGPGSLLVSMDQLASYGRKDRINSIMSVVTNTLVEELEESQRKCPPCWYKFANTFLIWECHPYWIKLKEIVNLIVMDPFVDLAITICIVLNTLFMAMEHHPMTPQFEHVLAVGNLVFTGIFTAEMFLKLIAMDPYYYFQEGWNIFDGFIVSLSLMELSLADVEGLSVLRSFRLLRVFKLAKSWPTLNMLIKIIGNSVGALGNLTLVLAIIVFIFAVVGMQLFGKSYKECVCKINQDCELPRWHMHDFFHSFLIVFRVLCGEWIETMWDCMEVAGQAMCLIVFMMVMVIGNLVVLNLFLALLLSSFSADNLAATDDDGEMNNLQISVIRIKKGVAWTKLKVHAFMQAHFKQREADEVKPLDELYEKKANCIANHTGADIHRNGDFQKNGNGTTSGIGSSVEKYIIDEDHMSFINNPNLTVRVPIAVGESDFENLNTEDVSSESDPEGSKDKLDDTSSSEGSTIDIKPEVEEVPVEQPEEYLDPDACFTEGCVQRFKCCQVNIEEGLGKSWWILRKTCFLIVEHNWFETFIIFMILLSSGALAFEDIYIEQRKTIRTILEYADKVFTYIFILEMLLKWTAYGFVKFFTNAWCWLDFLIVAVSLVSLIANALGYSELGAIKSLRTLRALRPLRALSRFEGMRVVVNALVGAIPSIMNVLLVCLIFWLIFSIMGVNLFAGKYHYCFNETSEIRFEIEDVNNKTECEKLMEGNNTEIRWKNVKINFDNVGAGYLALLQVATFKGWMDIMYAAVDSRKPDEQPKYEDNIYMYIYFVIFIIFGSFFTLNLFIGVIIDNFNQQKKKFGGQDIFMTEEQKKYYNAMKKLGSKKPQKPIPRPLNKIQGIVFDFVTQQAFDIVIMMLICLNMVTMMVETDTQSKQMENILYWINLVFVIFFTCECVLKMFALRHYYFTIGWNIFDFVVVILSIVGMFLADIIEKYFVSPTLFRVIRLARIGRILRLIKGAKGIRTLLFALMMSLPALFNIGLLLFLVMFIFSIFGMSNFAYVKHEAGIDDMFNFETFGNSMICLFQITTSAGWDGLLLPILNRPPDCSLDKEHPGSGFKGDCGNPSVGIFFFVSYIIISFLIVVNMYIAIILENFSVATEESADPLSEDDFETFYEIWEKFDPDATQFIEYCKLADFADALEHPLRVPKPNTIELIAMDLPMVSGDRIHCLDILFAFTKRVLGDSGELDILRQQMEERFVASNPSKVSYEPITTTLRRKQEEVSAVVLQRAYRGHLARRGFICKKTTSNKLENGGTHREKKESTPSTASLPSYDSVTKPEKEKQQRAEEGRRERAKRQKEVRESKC
Description: (§1) To determine the role of compounds of the invention in Nav1.6 channels alone and Nav1.6 channels in the presence of FGF14, 2×2 experimental groups using compound ZL0181, an exemplary embodiment, were designed. HEK-Nav1.6 cells were transiently transfected with GFP or […] and treated with either DMSO (0.15% final concentration, control group) or ZL0181 (20 μM, final concentration) 20-60 min prior to the experiments. […] Thus, ZL0181 inhibits peak current amplitude of Na1.6 current.
(§2) Furthermore, using a range of doses from 1 μM to 100 μM a dose-response profile for ZL0181 in HEK293-Nav1.6 cells alone and HEK-Nav1.6 cells transfected with FGF14 was developed.
(§3) HEK-Nav1.1, […] HEK-Nav1.6 were maintained in medium composed of equal volumes of DMEM and F-12 (Invitrogen) supplemented with 0.05% glucose, 0.5 mm pyruvate, 10% fetal bovine serum, 100 units/ml penicillin, 100 μg/ml streptomycin incubated at 37° C. with 5% CO2. For selection of Nav1.1 and Nav1.2, 500 μg/ml G418 (Invitrogen) was used, and for selection of Nav1.6, 80 μg/ml G418 (Invitrogen) was used. Cells were transfected according to manufacturer's instructions at 90-100% confluency using Lipofectamine 2000 (Invitrogen). See e.g., Shavkunov, A., et al. Assay and drug development technologies 10(2):148-160 (2012).
(§4) Detailed methods for path-clamp experiments is known in the art. See e.g., Ali, S. R., et al., Journal of Biological Chemistry 291:11268 (2016).

[1] = molecular target: T2, Nav1.6 channel in the presence of FGF14 (Homo sapiens, UniProt Q9UQD0); test: Whole-cell patch clamp of Na+ currents in HEK-Nav1.6 cells expressing FGF14-GFP
T2 construct: expressed in transfected cells; host or cells: HEK-Nav1.6 cells transiently transfected with FGF14-GFP
T2 sequence (Q9UQD0 whole entry): as above
Description: as §1
The role of ZOL181 in Nav1.6 channel in the presence of FGF14 was then investigated. […] Furthermore, the role of ZL0181 to modulate the biophysical properties of Nav1.6 channel in the presence of FGF14 was investigated. In consistency with previous studies, voltage dependence of activation and steady-state inactivation kinetics changes in the cells expressing FGF14-GFP compared with control (FIG. 3C). […] Thus, ZL0181 works synergistically with FGF14 to regulate the peak current amplitude as well as the inactivation kinetics.
as §2, §3, §4

Nav1.1 channels = molecular target: T3, Nav1.1 channels (Homo sapiens, UniProt P35498); test: Patch clamp of Na+ currents in Nav1.1 channels
T3 construct: expressed in transfected cells
Description: (§5) The role of ZL0181 in regulating Nav1.1 and Nav1.2 channels was also investigated.
as §3, §4

Nav1.2 channels = molecular target: T4, Nav1.2 channels (Homo sapiens, UniProt Q99250); test: Patch clamp of Na+ currents in Nav1.2 channels
T4 construct: expressed in transfected cells
T4 sequence (Q99250 whole entry): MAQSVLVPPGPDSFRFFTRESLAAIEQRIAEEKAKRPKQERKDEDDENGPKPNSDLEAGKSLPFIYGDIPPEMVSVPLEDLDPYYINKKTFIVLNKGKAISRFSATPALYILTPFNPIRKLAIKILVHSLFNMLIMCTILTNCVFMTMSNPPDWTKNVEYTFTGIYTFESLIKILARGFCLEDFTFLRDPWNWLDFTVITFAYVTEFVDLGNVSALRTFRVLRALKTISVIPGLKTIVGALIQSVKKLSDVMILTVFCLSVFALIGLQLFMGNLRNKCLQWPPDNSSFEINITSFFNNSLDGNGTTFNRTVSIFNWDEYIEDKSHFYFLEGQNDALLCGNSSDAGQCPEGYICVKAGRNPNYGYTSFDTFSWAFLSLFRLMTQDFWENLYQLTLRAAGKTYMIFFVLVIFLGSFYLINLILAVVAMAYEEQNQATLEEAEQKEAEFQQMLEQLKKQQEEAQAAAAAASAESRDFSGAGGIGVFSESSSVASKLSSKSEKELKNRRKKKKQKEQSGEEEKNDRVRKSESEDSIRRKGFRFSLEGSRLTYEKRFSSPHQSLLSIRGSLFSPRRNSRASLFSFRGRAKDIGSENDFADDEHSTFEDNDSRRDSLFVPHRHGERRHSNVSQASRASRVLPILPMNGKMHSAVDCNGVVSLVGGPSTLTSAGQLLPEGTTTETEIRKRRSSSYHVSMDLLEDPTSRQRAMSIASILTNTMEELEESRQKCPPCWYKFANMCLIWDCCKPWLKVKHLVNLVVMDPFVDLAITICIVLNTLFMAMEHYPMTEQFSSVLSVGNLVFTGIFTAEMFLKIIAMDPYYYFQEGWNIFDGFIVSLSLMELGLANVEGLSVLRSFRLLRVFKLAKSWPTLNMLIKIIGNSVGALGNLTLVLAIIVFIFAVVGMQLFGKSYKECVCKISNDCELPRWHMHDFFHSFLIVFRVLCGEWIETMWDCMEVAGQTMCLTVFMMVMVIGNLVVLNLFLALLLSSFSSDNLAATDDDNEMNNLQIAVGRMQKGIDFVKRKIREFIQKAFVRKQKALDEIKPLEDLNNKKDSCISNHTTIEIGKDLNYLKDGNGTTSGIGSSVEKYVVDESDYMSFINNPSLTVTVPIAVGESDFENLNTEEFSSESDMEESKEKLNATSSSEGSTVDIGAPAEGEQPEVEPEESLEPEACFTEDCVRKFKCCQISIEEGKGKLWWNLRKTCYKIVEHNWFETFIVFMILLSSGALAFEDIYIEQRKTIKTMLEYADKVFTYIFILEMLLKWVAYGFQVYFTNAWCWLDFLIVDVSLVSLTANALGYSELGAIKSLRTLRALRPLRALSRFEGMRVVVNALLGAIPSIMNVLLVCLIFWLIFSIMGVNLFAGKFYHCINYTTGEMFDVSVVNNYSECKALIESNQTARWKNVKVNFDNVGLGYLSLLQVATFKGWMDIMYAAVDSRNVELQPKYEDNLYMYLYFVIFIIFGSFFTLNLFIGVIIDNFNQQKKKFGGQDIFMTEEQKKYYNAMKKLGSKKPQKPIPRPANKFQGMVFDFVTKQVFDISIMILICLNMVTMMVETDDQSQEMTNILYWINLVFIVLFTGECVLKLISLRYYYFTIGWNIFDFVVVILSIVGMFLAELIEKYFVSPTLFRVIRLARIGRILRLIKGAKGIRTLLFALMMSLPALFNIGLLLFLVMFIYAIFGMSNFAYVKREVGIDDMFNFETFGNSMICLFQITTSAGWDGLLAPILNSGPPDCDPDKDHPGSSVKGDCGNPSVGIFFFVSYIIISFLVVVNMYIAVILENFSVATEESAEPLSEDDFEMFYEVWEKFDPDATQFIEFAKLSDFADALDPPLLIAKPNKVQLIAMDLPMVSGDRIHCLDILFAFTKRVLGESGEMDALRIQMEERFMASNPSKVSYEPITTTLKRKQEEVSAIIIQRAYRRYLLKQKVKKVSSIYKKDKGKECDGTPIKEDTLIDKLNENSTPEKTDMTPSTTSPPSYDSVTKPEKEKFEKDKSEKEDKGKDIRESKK
Description: as §5, §3, §4

FGF14:Nav1.6 complex = molecular target: T5, FGF14:Nav1.6 complex (Homo sapiens, UniProt Q92915); test: Split-luciferase complementation assay (LCA) in HEK293 cells expressing CLuc-FGF14 and CD4-Nav1.6-NLuc; settings: 50 μM, normalized to DMSO control
T5 construct: FGF14 and the C-tail of Nav1.6 channels are fused to vectors expressing CLuc and NLuc luciferase reporter; expressed in transfected cells; host or cells: HEK293, transient transfection
T5 sequence (Q92915 1-252 isoform Q92915-2): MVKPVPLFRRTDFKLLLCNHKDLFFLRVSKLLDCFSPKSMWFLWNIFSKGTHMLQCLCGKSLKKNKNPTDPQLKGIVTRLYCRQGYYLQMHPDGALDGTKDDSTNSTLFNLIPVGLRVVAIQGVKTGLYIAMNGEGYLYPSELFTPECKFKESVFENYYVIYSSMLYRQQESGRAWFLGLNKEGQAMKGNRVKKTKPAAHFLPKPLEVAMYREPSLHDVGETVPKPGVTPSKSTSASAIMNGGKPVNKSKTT
Description: Detailed methods for LCA can be found is known in the art. See e.g., Shavkunov A. S., et al., Methods in Molecular Biology 1278:497-514 (2015). Statistical values were calculated as mean and standard error of the mean (mean±SEM), unless otherwise specified. The statistical significance (*p<0.05) of different groups was determined by Student's t-test, one-way ANOVA with post-hoc Bonferroni's method or Kruskal-Wallis one-way ANOVA on ranks with post-hoc Dunn's method using Sigma Stat (San Jose, Calif.) and Graph PrismR (La Jolla, Calif.) software. Dose-response modulation was determined by: y=START+(END−START)*x^n/(k^n+x^n) where k, Michaelis constant; n, cooperative sites; x, independent variable; y, dependable variable.
To monitor the role of compounds of the invention in the FGF14:Nav1.6 complex, certain embodiments of the invention were screened by split-luciferase complementation assay (LCA) where FGF14 and the C-tail of Nav1.6 channels are fused to vectors expressing CLuc and NLuc luciferase reporter. Compounds of the invention, as exemplified by, compounds ZL0141, ZL0148, ZL0181, and ZL0182 (see FIG. 1) were tested at 50 μM in HEK293 cells expressing CLuc-FGF14 and CD4:Nav1.6-NLuc. […] None of the tested compounds interfered with the full-length luciferase enzyme (FIG. 2B, Chart C). Dose-response studies were then performed with compounds ZL0148, ZL0181, and ZL0182 against the FGF14:Nav1.6 complex.

CC(C)C[C@H](NC(=O)[C@H](Cc1ccccc1)NC(=O)OCc1ccccc1)C(=O)N1CCC[C@H]1C(=O)N[C@@H](CCCCNC(=O)OC(C)(C)C)C(N)=O [ZL0181, Z-Phe-Leu-Pro-Lys(Boc)-NH2] (Cbz-FLPK(Boc)-NH2)
activation and inactivation properties of Nav channel alone (Nav1.6 channels; 20 μM, HEK-Nav1.6 cells with GFP): does not change activation and inactivation properties
IC50 (Nav1.6 channels; HEK293-Nav1.6 cells alone, doses 1 μM to 100 μM, read-out: IC50, inhibition of Nav1.6 encoded currents): 19.7 ± 5.7 µM
Nav1.6-mediated peak current density (Nav1.6 channels; HEK-Nav1.6 cells with GFP, pretreated with 20 μM, n=12, DMSO control −73.8±13.6): −20.9±3.4 pA/pF
steady-state inactivation (depolarizing shift induced by FGF14-GFP) ([1]; FGF14-GFP-expressing HEK-Nav1.6 cells, 20 μM): rescued the depolarizing shift of the steady-state inactivation induced by FGF14-GFP expression back to control levels
Na+ current peak amplitude (peak current density) ([1]; FGF14-GFP-expressing HEK-Nav1.6 cells, 20 μM, n=19, DMSO control −18.1±3.8): −7.4±4.4 pA/pF
IC50 ([1]; HEK-Nav1.6 cells transfected with FGF14, doses 1 μM to 100 μM, read-out: IC50, inhibition of Nav1.6 encoded currents in presence of FGF14): 11.5 ± 1.3 µM
peak current amplitude in Nav1.1 channels (Nav1.1 channels): suppresses peak current amplitude
synergy with FGF14 on Na+ current and rescue of V1/2 of inactivation, Nav1.1 (Nav1.1 channels; in presence of FGF14): does neither act synergistically to further suppress Na+ current in presence of FGF14 or rescue the voltage-dependence inactivation property
peak current amplitude in Nav1.2 channels (Nav1.2 channels): suppresses peak current amplitude
synergy with FGF14 on Na+ current and rescue of V1/2 of inactivation, Nav1.2 (Nav1.2 channels; in presence of FGF14): does neither act synergistically to further suppress Na+ current in presence of FGF14 or rescue the voltage-dependence inactivation property
luminescence response compared to control (DMSO) (FGF14:Nav1.6 complex): 75±6%
